Test system: rat mixed glial culture
Test: Neurogenesis promoting effect in rat mixed glial culture (neuronal differentiation, beta-tubulin III ELISA)
Type: cell-based
Details: 1 μM compound + rhIGF-1 100 ng/ml, 3 days, control (only rhIGF-1) = 100%, absorbance 450 nm; for activity at 1 µM: Rattus norvegicus, 72 h, read-out: Ratio of absorbance of compound-supplemented group to control (%)
Method: The hippocampus and the cerebral cortex were excised from each of 3-day-old SD rats. A cell suspension was prepared therefrom using a neuron dispersion kit (Sumitomo Bakelite Co., Ltd., MB-X9901) and inoculated at concentration of 10^5 cells/well to a 96-well plate coated with type I collagen (AGC Techno Glass Co., Ltd., 4860-010). The cells were cultured in a growth medium (D-MEM/F12 containing 10% FBS and PS) at 37° C. for 4 days under 5% CO2 conditions.
After the culture, the medium was replaced by a differentiation medium (D-MEM/F12 containing PS), and rhIGF-1 (R&D Systems, 291-G1-250, final concentration: 100 ng/ml) and 1 μM compound were added thereto. The cells were further cultured for 3 days. The cultured cells were fixed in 4% paraformaldehyde-PBS (Muto Pure Chemicals Co., Ltd.), subjected to membrane permeation treatment with 0.1% Triton X-100 PBS, and blocked with Block Ace solution (DS Pharma Biomedical Co., Ltd., UK-B80). Anti-neuron-specific class III beta-tubulin Antibody (R&D Systems, MAB1195, clone Tuj-1) was diluted 1000-fold and used as a primary antibody. Anti-Mouse Ig, HRP-Linked F(ab′)2 Fragment Sheep (GE Healthcare, NA9310) was diluted 10000-fold and used as a secondary antibody. A plate washer (BIO-TEK INSTRUMENTS ELX405) was used in washing operation. TMB Microwell Peroxidase Substrate System (Kirkegaard & Perry Laboratories, 50-76-00) was used in color reaction, which was performed for 10 minutes and stopped by addition of 1 M phosphoric acid. Absorbance at 450 nm was measured using a plate reader (Labsystems Multiskan BICHROMATIC).
The rate of increase in the absorbance of the compound-supplemented group (compound+rhIGF-1) relative to that of a compound-unsupplemented group (control, only rhIGF-1) as 100% was determined in terms of % control.

Structure (SMILES)	activity at 1 µM	Ratio of absorbance of compound-supplemented group to control (%)
COc1ccc(-c2nc(OC)ccc2N2CCN(c3ccc(OC)cc3)CC2)cc1 [Example 50, 1-[6-methoxy-2-(4-methoxyphenyl)pyridin-3-yl]-4-(4-methoxyphenyl)piperazine]	546%	–
COc1ccc(N2CCOC(c3cccc(C(F)(F)F)c3)C2)c(-c2ccc(N(C)C)cc2)n1 (stereo not drawn) [Example 2, 4-(6-methoxy-3-{2-[3-(trifluoromethyl)phenyl]morpholin-4-yl}pyridin-2-yl)-N,N-dimethylaniline]	448%	–
COc1ccc(N2CCCN(c3ccc(OC)c(OC)c3)CC2)c(-c2ccc(N(C)C)cc2)n1 [Example 89, 4-{3-[4-(3,4-dimethoxyphenyl)-1,4-diazepan-1-yl]-6-methoxypyridin-2-yl}-N,N-dimethylaniline]	379%	–
CCOC(=O)N1CCN(c2ccc(OC)nc2-c2ccc(N(C)C)cc2)CC1c1ccc(OC)cc1 (stereo not drawn) [Example 13, Ethyl 4-{2-[4-(dimethylamino)phenyl]-6-methoxypyridin-3-yl}-2-(4-methoxyphenyl)piperazine-1-carboxylate]	285%	–
COc1ccc(N2CCN(c3c(C)cc(OC)nc3-c3ccc(N(C)C)cc3)CC2)cc1 [Example 159, 4-{6-methoxy-3-[4-(4-methoxyphenyl)piperazin-1-yl]-4-methylpyridin-2-yl}-N,N-dimethylaniline]	611%	–
COc1ccc(N2CCOC(c3ccc(C(F)(F)F)cc3)C2)c(-c2ccc(N(C)C)cc2)n1 (single isomer, unassigned) [Example 6, 4-(6-methoxy-3-{2-[4-(trifluoromethyl)phenyl]morpholin-4-yl}pyridin-2-yl)-N,N-dimethylaniline]	–	134%
COc1ccc(N2CCN(c3ccc(OC)nc3-c3ccc(C(C)C)cc3)CC2)cc1 [Example 51, 1-{6-methoxy-2-[4-(1-methylethyl)phenyl]pyridin-3-yl}-4-(4-methoxyphenyl)piperazine]	856%	–
CCOc1ccc(-c2nc(OC)ccc2N2CCC(c3ccc(OC)cc3)N(CC)CC2)cc1 (stereo not drawn) [Example 108, 1-[2-(4-ethoxyphenyl)-6-methoxypyridin-3-yl]-4-ethyl-5-(4-methoxyphenyl)-1,4-diazepane]	773%	–
COc1ccc(N2CCN(c3ccc(OC)c(OC)c3)CC2)c(-c2ccc(N(C)C)cc2)n1 [Example 26, 4-{3-[4-(3,4-dimethoxyphenyl)piperazin-1-yl]-6-methoxypyridin-2-yl}-N,N-dimethylaniline]	259%	–
COc1ccc(N2CCN(c3ccc(OC)nc3-c3ccc(N(C)C)cc3)CCC2C)cc1 (stereo not drawn) [Example 134, 4-{6-methoxy-3-[4-(4-methoxyphenyl)-5-methyl-1,4-diazepan-1-yl]pyridin-2-yl}-N,N-dimethylaniline]	630%	–
COc1ccc(N2CCN(c3ccc(OC)nc3-c3ccc(N(C)C)cc3)CC(C)(C)C2)cc1 [Example 119, 4-{6-methoxy-3-[4-(4-methoxyphenyl)-6,6-dimethyl-1,4-diazepan-1-yl]pyridin-2-yl}-N,N-dimethylaniline]	760%	–
COc1ccc(N2CCCN(c3ccc(OC)nc3-c3ccc(N(C)C)cc3)CC2)cc1 [Example 85, 4-{6-methoxy-3-[4-(4-methoxyphenyl)-1,4-diazepan-1-yl]pyridin-2-yl}-N,N-dimethylaniline]	385%	–
COc1ccc(N2CCCN(c3ccc(OC)nc3-c3ccc(N(C)C)cc3)CC2)c(F)c1 [Example 87, 4-{3-[4-(2-fluoro-4-methoxyphenyl)-1,4-diazepan-1-yl]-6-methoxypyridin-2-yl}-N,N-dimethylaniline]	224%	–
COc1ccc(C2CN(c3ccc(OC)nc3-c3ccc(N(C)C)cc3)CCN2)cc1 (stereo not drawn) [Example 14, 4-{6-methoxy-3-[3-(4-methoxyphenyl)piperazin-1-yl]pyridin-2-yl}-N,N-dimethylaniline]	260%	–
COc1ccc(N2CCOC(c3ccc(C(F)(F)F)cc3)C2)c(-c2ccc(N(C)C)cc2)n1 (single isomer, unassigned) [Example 5, 4-(6-methoxy-3-{2-[4-(trifluoromethyl)phenyl]morpholin-4-yl}pyridin-2-yl)-N,N-dimethylaniline]	–	765%
CCOc1ccc(-c2nc(OC)cc(C)c2N2CCN(c3ccc(OC)cc3)CC2)cn1 [Example 168, 6′-ethoxy-6-methoxy-3-[4-(4-methoxyphenyl)piperazin-1-yl]-4-methyl-2,3′-bipyridine]	584%	–
COc1ccc(N2CCN(c3ccc(OC)nc3-c3ccc(OC(F)(F)F)cc3)CC2)cc1 [Example 49, 1-(4-methoxyphenyl)-4-{6-methoxy-2-[4-(trifluoromethoxy)phenyl]pyridin-3-yl}piperazine]	887%	–
COc1ccc(N2CCN(c3ccc(OC)nc3-c3ccc(N4CCOCC4)cc3)CC2)cc1 [Example 174, 4-(4-{6-methoxy-3-[4-(4-methoxyphenyl)piperazin-1-yl]pyridin-2-yl}phenyl)morpholine]	390%	–
COc1ccc(C2CN(c3ccc(OC)nc3-c3ccc(N(C)C)cc3)CCO2)cc1 (stereo not drawn) [Example 3, 4-{6-methoxy-3-[2-(4-methoxyphenyl)morpholin-4-yl]pyridin-2-yl}-N,N-dimethylaniline]	303%	–
COc1ccc(N2CCN(c3ccc(OC)nc3-c3ccc4c(c3)CC(C)(C)O4)CC2)cc1 [Example 60, 1-[2-(2,2-dimethyl-2,3-dihydro-1-benzofuran-5-yl)-6-methoxypyridin-3-yl]-4-(4-methoxyphenyl)piperazine]	218%	–
COc1ccc(N2CCN(c3ccc(OC)nc3-c3ccc4c(cnn4C)c3)CC2)cc1 [Example 171, 5-{6-methoxy-3-[4-(4-methoxyphenyl)piperazin-1-yl]pyridin-2-yl}-1-methyl-1H-indazole]	312%	–
COc1ccc(C2CCN(c3ccc(OC)nc3-c3ccc(N(C)C)cc3)CCN2C)cc1 (stereo not drawn) [Example 98, 4-{6-methoxy-3-[5-(4-methoxyphenyl)-4-methyl-1,4-diazepan-1-yl]pyridin-2-yl}-N,N-dimethylaniline]	397%	–
COc1ccc(N2CCN(c3ccc(OC)nc3-c3ccc(OC(C)C)cc3)CC2)cc1 [Example 52, 1-{6-methoxy-2-[4-(1-methylethoxy)phenyl]pyridin-3-yl}-4-(4-methoxyphenyl)piperazine]	731%	–
COc1ccc(C2(O)CCN(c3ccc(OC)nc3-c3ccc(OC(F)(F)F)cc3)CC2)cc1 [Example 75, 4-(4-methoxyphenyl)-1-{6-methoxy-2-[4-(trifluoromethoxy)phenyl]pyridin-3-yl}piperidin-4-ol]	249%	–
CCOc1ccc(-c2nc(OC)ccc2N2CCN(c3ccc(OC)cc3)CC2)c(F)c1 [Example 113, 1-[2-(4-ethoxy-2-fluorophenyl)-6-methoxypyridin-3-yl]-4-(4-methoxyphenyl)piperazine]	717%	–
COc1ccc(N2CCN(c3ccc(OC)nc3-c3cnn(C)c3)CC2)cc1 [Example 169, 1-[6-methoxy-2-(1-methyl-1H-pyrazol-4-yl)pyridin-3-yl]-4-(4-methoxyphenyl)piperazine]	255%	–
COc1ccc(N2CCN(c3ccc(OC)nc3-c3ccc(N(C)C)cc3)CC(C)C2=O)cc1 (stereo not drawn) [Example 118, 1-{2-[4-(dimethylamino)phenyl]-6-methoxypyridin-3-yl}-4-(4-methoxyphenyl)-6-methyl-1,4-diazepan-5-one]	528%	–

— US20130005710A1, “AMINOPYRIDINE DERIVATIVE” (priority 2009, published 2013)
